According to US20160280688A1, “SUBSTITUTED PHENYLALANINE DERIVATIVES” (BAYER PHARMA AKTIENGESELLSCHAFT, priority 2013, published 2016):
Where a name gives a salt, the structure may show the parent alone.

Key:
Assay type in all cases: biochemical
[1] = target: T1, human plasmin (Homo sapiens, UniProt P00747); experiment: Measurement of plasmin inhibition (fluorogenic peptide substrate MeOSuc-Ala-Phe-Lys-AMC); settings: plasmin from Kordia, 15 min preincubation, 30 min at 22° C., fluorescence
T1 construct: purchased Kordia
T1 sequence (P00747 581-810 limits assumed): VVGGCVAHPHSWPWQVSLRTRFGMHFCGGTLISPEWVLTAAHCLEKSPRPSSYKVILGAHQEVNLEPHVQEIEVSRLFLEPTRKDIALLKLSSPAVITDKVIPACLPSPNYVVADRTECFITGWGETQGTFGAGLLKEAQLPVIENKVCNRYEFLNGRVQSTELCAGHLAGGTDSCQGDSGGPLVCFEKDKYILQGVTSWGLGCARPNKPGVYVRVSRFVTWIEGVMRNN
T1 sequence (P00747 97-580 partner limits assumed): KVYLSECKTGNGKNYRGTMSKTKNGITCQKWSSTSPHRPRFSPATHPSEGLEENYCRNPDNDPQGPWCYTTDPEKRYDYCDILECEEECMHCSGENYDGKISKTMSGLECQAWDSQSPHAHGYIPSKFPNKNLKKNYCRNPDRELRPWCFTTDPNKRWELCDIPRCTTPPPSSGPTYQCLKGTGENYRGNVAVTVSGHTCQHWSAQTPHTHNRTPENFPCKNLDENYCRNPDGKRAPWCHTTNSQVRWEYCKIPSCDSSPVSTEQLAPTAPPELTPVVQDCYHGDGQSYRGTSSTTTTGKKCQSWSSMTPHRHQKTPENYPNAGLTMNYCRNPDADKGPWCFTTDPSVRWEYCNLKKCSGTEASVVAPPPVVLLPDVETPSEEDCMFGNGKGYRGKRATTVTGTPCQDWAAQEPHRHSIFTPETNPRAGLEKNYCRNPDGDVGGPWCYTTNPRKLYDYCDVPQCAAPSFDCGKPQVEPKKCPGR
Description: (§1) The plasmin inhibition of the inventive substances is determined using a biochemical test system which utilizes the reaction of a peptidic plasmin substrate to determine the enzymatic activity of human plasmin. Here, plasmin cleaves from the peptic plasmin substrate the C-terminal aminomethylcoumarin (AMC), the fluorescence of which is measured. The determinations are carried out in microtitre plates.
(§2) Test substances are dissolved in dimethyl sulphoxide and serially diluted in dimethyl sulphoxide (3000 μM to 0.0078 μM; resulting final concentrations in the test: 50 μM to 0.00013 μM). In each case 1 μl of the diluted substance solutions are placed into the wells of white microtitre plates from Greiner (384 wells). Subsequently, the following are added successively: 20 μl of assay buffer (50 mmol/l Tris buffer pH 7.4; 100 mmol/l sodium chloride; 5 mmol/l calcium chloride; 0.1% bovine serum albumin) and 20 μl of plasmin from Kordia (0.3 μg/ml in assay buffer). After 15 min of incubation, the enzyme reaction is started by addition of 20 μl of the plasmin substrate MeOSuc-Ala-Phe-Lys-AMC dissolved in assay buffer (150 μM in assay buffer) from Bachem, the mixture is incubated at room temperature (22° C.) for 30 min and fluorescence is then measured (excitation: 360 nm, emission: 460 nm). The measured emissions of the test batches with test substance are compared to those of control batches without test substance (only dimethyl sulphoxide instead of test substance in dimethyl sulphoxide), and ICso values are calculated from the concentration/activity relationships.

[2] = target: T2, human factor XIa (Homo sapiens, UniProt P03951); experiment: Measurement of FXIa inhibition (fluorogenic peptide substrate Boc-Glu(OBzl)-Ala-Arg-AMC); settings: factor XIa from Kordia, 15 min preincubation, 30 min at 22° C., fluorescence
T2 construct: purchased Kordia
T2 sequence (P03951 388-625 limits assumed): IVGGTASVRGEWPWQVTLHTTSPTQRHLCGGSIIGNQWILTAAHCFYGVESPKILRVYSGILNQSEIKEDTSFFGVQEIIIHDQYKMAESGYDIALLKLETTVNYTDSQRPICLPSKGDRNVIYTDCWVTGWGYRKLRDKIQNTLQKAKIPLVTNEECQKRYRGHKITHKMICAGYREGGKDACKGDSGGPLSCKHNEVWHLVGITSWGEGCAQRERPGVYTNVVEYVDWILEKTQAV
T2 sequence (P03951 19-387 partner limits assumed): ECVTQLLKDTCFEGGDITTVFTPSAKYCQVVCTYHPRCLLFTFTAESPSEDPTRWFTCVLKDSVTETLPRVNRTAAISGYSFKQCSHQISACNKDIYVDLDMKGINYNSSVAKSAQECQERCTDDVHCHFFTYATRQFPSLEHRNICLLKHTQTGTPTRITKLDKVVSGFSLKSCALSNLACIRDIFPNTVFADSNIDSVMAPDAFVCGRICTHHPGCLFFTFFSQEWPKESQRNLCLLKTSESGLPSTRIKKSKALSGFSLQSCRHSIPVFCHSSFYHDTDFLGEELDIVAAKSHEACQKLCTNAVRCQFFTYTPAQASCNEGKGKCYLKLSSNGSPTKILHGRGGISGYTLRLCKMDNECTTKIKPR
Description: as §1, with “To determine the factor XIa” for “The plasmin”, “the” for “the inventive”, “according to the invention,” for “is determined using”, “system is used” for “system”, “factor XIa” for “plasmin”, “factor XIa.” for “plasmin.”
as §2, with “factor XIa” for “plasmin”, “(0.45 nM” for “(0.3 μg/ml”, “Boc-Glu(OBzl)-Ala-Arg-AMC” for “MeOSuc-Ala-Phe-Lys-AMC”, “(10” for “(150”, “IC50” for “ICso”

[3] = system: human and animal plasma; experiment: Determination of the anticoagulatory activity: activated partial thromboplastin time (aPTT) in plasma; settings: in vitro in plasma, C.K. Prest kit, 3 min at 37° C.
Description: The anticoagulatory activity of the test substances is determined in vitro in human and animal plasma (for example mouse, rat, rabbit, pig and dog plasma). To this end, blood is drawn off in a mixing ratio of sodium citrate/blood of 1:9 using a 0.11 molar sodium citrate solution as receiver. Immediately after the blood has been drawn off, it is mixed thoroughly and centrifuged at about 4000 g for 15 minutes. The supernatant is pipetted off.
The activated partial thromboplastin time (aPTT) is determined in the presence of varying concentrations of test substance or the corresponding solvent using a commercial test kit (C.K. Prest from Diagnostica Stago). The test compounds are incubated with the plasma and the PTT reagent (cephalin, kaolin) at 37° C. for 3 minutes. Coagulation is then started by addition of a 25 mM aqueous calcium chloride solution, and the time when coagulation occurs is determined. The concentration of test substance which brings about a 1.5-fold extension of the aPTT is determined Activity data from this test are listed in Table B below: […]

IC50 [1] [nM] | IC50 [2] [nM] | Structure (SMILES) | aPTT (concentration of test substance which brings about a 1.5-fold extension of the aPTT) [3] [µmol/L] | aPTT (concentration of test substance which brings about a 1.5-fold extension of the aPTT) ([3]; hydrochloride) [µmol/L]
0.45 | 0.9 | Cc1c(-c2ccc(C[C@H](NC(=O)[C@H]3CC[C@H](CN)CC3)C(=O)Nc3ccc4[nH]c(=O)[nH]c4c3)cc2)cc2nc(C3CCC3)[nH]c2c1F [Example 27, N-alpha-{[trans-4-(Aminomethyl)cyclohexyl]carbonyl}-4-(2-cyclobutyl-7-fluoro-6-methyl-1H-benzimidazol-5-yl)-N-(2-oxo-2,3-dihydro-1H-benzimidazol-5-yl)-L-phenylalaninamide] | 0.16 | 
5.9 | 1.7 | Cc1cc2nc[nH]c2cc1-c1ccc(C[C@H](NC(=O)[C@H]2CC[C@H](CN)CC2)C(=O)Nc2ccc3c(=O)[nH][nH]c3c2)cc1 [Example 30, N-alpha-{[trans-4-(Aminomethyl)cyclohexyl]carbonyl}-4-(5-methyl-1H-benzimidazol-6-yl)-N-(3-oxo-2,3-dihydro-1H-indazol-6-yl)-L-phenylalaninamide hydrochloride] |  | 0.07
2.1 | 3.1 | CC(C)c1nc2cc(C(F)(F)F)c(-c3ccc(C[C@H](NC(=O)[C@H]4CC[C@H](CN)CC4)C(=O)Nc4ccc5[nH]c(=O)[nH]c5c4)cc3)cc2[nH]1 [Example 31, N-alpha-{[trans-4-(Aminomethyl)cyclohexyl]carbonyl}-4-[2-isopropyl-5-(trifluoromethyl)-1H-benzimidazol-6-yl]-N-(2-oxo-2,3-dihydro-1H-benzimidazol-5-yl)-L-phenylalaninamide hydrochloride] | 0.07 | 
8.7 | 28 | CC(C)n1[nH]c2cc(-c3ccc(C[C@H](NC(=O)[C@H]4CC[C@H](CN)CC4)C(=O)Nc4ccc5cn[nH]c5c4)cc3)ccc2c1=O [Example 32, N-alpha-{[trans-4-(Aminomethyl)cyclohexyl]carbonyl}-N-1H-indazol-6-yl-4-(2-isopropyl-3-oxo-2,3-dihydro-1H-indazol-6-yl)-L-phenylalaninamide hydrochloride] | 0.43 | 
5.9 | 17 | CC(C)n1[nH]c2cc(-c3ccc(C[C@H](NC(=O)[C@H]4CC[C@H](CN)CC4)C(=O)Nc4ccc5[nH]c(=O)[nH]c5c4)cc3)ccc2c1=O [Example 33, N-alpha-{[trans-4-(Aminomethyl)cyclohexyl]carbonyl}-4-(2-isopropyl-3-oxo-2,3-dihydro-1H-indazol-6-yl)-N-(2-oxo-2,3-dihydro-1H-benzimidazol-5-yl)-L-phenylalaninamide hydrochloride] | 0.1 | 
1.7 | 1.5 | Cc1cc2c(=O)n(C(C)C)[nH]c2cc1-c1ccc(C[C@H](NC(=O)[C@H]2CC[C@H](CN)CC2)C(=O)Nc2ccc3[nH]c(=O)[nH]c3c2)cc1 [Example 34, N-alpha-{[trans-4-(Aminomethyl)cyclohexyl]carbonyl}-4-(2-isopropyl-5-methyl-3-oxo-2,3-dihydro-1H-indazol-6-yl)-N-(2-oxo-2,3-dihydro-1H-benzimidazol-5-yl)-L-phenylalaninamide hydrochloride] | 0.11 | 
1.5 | 6.9 | CC(C)c1nc2c(F)c(F)c(-c3ccc(C[C@H](NC(=O)[C@H]4CC[C@H](CN)CC4)C(=O)Nc4ccc5[nH]c(=O)[nH]c5c4)cc3)cc2[nH]1 [Example 35, N-alpha-{[trans-4-(Aminomethyl)cyclohexyl]carbonyl}-4-(4,5-difluoro-2-isopropyl-1H-benzimidazol-6-yl)-N-(2-oxo-2,3-dihydro-1H-benzimidazol-5-yl)-L-phenylalaninamide hydrochloride] | 0.54 | 
1.2 | 3.6 | Cc1cc2nc(C3CC3)nn2cc1-c1ccc(C[C@H](NC(=O)[C@H]2CC[C@H](CN)CC2)C(=O)Nc2ccc3[nH]c(=O)[nH]c3c2)cc1 [Example 36, N-alpha-{[trans-4-(Aminomethyl)cyclohexyl]carbonyl}-4-(2-cyclopropyl-7-methyl[1,2,4]triazolo[1,5-a]pyridin-6-yl)-N-(2-oxo-2,3-dihydro-1H-benzimidazol-5-yl)-L-phenylalaninamide hydrochloride] | 0.08 | 
0.5 | 4.9 | Cc1cc2nc(C(C)C)[nH]c2nc1-c1ccc(C[C@H](NC(=O)[C@H]2CC[C@H](CN)CC2)C(=O)Nc2ccc3[nH]c(=O)[nH]c3c2)cc1 [Example 37, N-alpha-{[trans-4-(Aminomethyl)cyclohexyl]carbonyl}-4-(2-isopropyl-6-methyl-3H-imidazo[4,5-b]pyridin-5-yl)-N-(2-oxo-2,3-dihydro-1H-benzimidazol-5-yl)-L-phenylalaninamide hydrochloride] | 0.06 | 
